US20100056524A1, “Compound” (priority 2008, published 2010)
Where a name gives a salt, the structure may show the parent alone. Read-outs that look alike come from different tables or passages of the source.

Legend:
MSK1 = target: T1, MSK1 (Homo sapiens, UniProt O75582); experiment: MSK1 protein kinase assay; format: biochemical; settings: for remaining activity at 10 µM: 10 μM compound; for residual kinase activity MSK1: 1 μm compound; for remaining activity at 1 µM: 1 μM compound
T1 construct: All protein kinases were of human origin and encoded full length proteins, unless indicated otherwise; made in house
From the text: (§1) All protein kinases were of human origin and encoded full length proteins, unless indicated otherwise. They were either expressed as glutathione S-transferase (GST) fusion proteins in Escherichia Coli or as hexahistidine (His6)-tagged proteins in insect Sf21 cells. GST fusion proteins were purified by affinity chromatography on glutathione-Sepharose, and His6-tagged proteins on nickel/nitriloacetate-agarose. The procedures for expressing some of the protein kinases used herein have been detailed previously.^8,9 The following sections outline the DNA vectors synthesised and the procedures used to express and purifying protein kinases that have not been reported previously.
(§2) All assays (25.5 μl) were carried out at room temperature (21° C.) and were linear with respect to time and enzyme concentration under the conditions used. Assays were performed for 30 min using Multidrop Micro reagent dispensers (Thermo Electron Corporation, Waltham, Mass. 02454, USA) in a 96-well format. The concentration of magnesium acetate in the assays was 10 mM and the [γ-33P] ATP (800 cpm/pmol) was used at 5, 20 or 50 μM as indicated, in order to be at or below the Km for ATP for each enzyme. Protein kinases assayed at 5 μM ATP were: —ERK1, ERK8, PKBα, MARK3, Aurora C. Protein kinases assayed at 20 μM ATP were: —JNK1, PDK1, CHK1, CHK2, CDK2 and Aurora B. Protein kinases assayed at 50 μM ATP were: —MNK2, IKKepsilon and TBK1.
(§3) The assays were initiated with MgATP, stopped by addition of 5 μl of 0.5 M orthophosphoric acid and spotted on to P81 filterplates using a unifilter harvester (PerkinElmer, Boston, Mass. 02118, USA). The IC50 values of inhibitors were determined after carrying out assays at 10 different concentrations of each compound.
(§4) Unless stated otherwise, enzymes were diluted in 50 mM Tris/HCl pH 7.5, 0.1 mM EGTA, 1 mg/ml BSA, 0.1% (v/v) 2-mercaptoethanol and assayed in 50 mM Tris/HCl pH 7.5, 0.1 mM EGTA, 0.1% (v/v) 2-mercaptoethanol.

Src = target: T2, Src (Homo sapiens, UniProt P12931); experiment: Src protein kinase assay; format: biochemical; settings: for remaining activity at 10 µM: 10 μM compound; for residual kinase activity Src: 1 μm compound; for remaining activity at 1 µM: 1 μM compound
T2 construct: All protein kinases were of human origin and encoded full length proteins, unless indicated otherwise; made in house
From the text: as §1, §2, §3, §4

MELK = target: T3, MELK (Homo sapiens, UniProt Q14680); experiment: MELK protein kinase assay; format: biochemical; settings: for remaining activity at 10 µM: 10 μM compound; for residual kinase activity MELK: 1 μm compound; for remaining activity at 1 µM: 1 μM compound
T3 construct: All protein kinases were of human origin and encoded full length proteins, unless indicated otherwise; made in house
From the text: as §1, §2, §3, §4

PAK4 = target: T4, PAK4 (Homo sapiens, UniProt O96013); experiment: PAK4 protein kinase assay; format: biochemical; settings: for remaining activity at 10 µM: 10 μM compound; for residual kinase activity PAK4: 1 μm compound; for remaining activity at 1 µM: 1 μM compound
T4 construct: All protein kinases were of human origin and encoded full length proteins, unless indicated otherwise; made in house
From the text: as §1, §2, §3, §4

p38g MAPK = target: T5, p38g MAPK (Homo sapiens, UniProt P53778); experiment: p38g MAPK protein kinase assay; format: biochemical; settings: for remaining activity at 10 µM: 10 μM compound; for residual kinase activity p38g MAPK: 1 μm compound; for remaining activity at 1 µM: 1 μM compound
T5 construct: All protein kinases were of human origin and encoded full length proteins, unless indicated otherwise; made in house
T5 sequence (P53778 1-367): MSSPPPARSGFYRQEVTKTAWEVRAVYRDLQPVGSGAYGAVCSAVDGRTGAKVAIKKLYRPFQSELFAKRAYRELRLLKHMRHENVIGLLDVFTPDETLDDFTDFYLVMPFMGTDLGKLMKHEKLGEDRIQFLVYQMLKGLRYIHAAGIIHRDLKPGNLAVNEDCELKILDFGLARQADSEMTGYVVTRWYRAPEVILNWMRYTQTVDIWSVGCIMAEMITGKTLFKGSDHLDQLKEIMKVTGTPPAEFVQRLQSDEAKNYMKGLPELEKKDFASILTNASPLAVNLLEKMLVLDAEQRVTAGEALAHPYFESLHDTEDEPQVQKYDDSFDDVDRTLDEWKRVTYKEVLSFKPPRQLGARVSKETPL
From the text: as §1, §2, §3, §4

MNK1 = target: T6, MNK1 (Homo sapiens, UniProt Q9BUB5); experiment: MNK1 protein kinase assay; format: biochemical; settings: for remaining activity at 10 µM: 10 μM compound; for residual kinase activity MNK1: 1 μm compound; for remaining activity at 1 µM: 1 μM compound
T6 construct: All protein kinases were of human origin and encoded full length proteins, unless indicated otherwise; made in house
From the text: as §1, §2, §3, §4

[1] = system: panel of different kinases; experiment: Selectivity across kinase panel (Gini coefficient); format: biochemical, human; settings: for GINI Coefficient: value between 0 and 1, higher = more selective
From the text: Table compares the activity of Example 23 with cyclobutanecarboxylic acid {3-[5-bromo-2-(3-fluoro-phenylamino)-pyrimidin-4-ylamino]-propyl}-amide (Compound A)^13, against a panel of different kinases, where the residual kinase activity, in %, at two concentrations of the compounds is expressed. The higher the percentage residual activity, the lower the degree of inhibition of the kinase.

BRSK2 = target: T7, BRSK2 (Homo sapiens, UniProt Q8IWQ3); experiment: BRSK2 protein kinase assay; format: biochemical; settings: for remaining activity at 10 µM: 10 μM compound; for residual kinase activity BRSK2: 1 μm compound; for remaining activity at 1 µM: 1 μM compound
T7 construct: All protein kinases were of human origin and encoded full length proteins, unless indicated otherwise; made in house
T7 sequence (Q8IWQ3 1-736): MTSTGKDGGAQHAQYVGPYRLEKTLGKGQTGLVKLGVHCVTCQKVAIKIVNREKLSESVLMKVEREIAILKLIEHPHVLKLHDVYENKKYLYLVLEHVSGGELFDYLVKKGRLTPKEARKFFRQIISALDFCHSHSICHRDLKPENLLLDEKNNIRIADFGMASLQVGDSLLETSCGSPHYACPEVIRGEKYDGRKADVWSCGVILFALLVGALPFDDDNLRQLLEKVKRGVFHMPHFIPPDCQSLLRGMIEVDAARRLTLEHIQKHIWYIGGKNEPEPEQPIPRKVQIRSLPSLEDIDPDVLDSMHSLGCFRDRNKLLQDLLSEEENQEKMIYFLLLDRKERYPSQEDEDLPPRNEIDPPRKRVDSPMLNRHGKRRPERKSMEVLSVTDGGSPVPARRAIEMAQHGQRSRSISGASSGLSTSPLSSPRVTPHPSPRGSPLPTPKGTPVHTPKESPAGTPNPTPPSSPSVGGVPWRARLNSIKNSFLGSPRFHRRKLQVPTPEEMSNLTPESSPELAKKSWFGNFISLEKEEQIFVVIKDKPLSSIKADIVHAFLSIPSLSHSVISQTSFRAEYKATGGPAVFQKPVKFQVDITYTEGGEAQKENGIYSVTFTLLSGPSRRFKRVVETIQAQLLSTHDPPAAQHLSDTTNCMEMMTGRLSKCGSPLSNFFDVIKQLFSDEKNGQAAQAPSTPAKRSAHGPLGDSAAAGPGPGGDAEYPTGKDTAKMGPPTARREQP
From the text: as §1, §2, §3, §4

PKA = target: T8, PKA (Homo sapiens, UniProt P17612); experiment: PKA protein kinase assay; format: biochemical; settings: for remaining activity at 10 µM: 10 μM compound; for residual kinase activity PKA: 1 μm compound; for remaining activity at 1 µM: 1 μM compound
T8 construct: All protein kinases were of human origin and encoded full length proteins, unless indicated otherwise; made in house
From the text: as §1, §2, §3, §4

[2] = read-out: residual kinase activity MSK1
[3] = read-out: residual kinase activity Src
[4] = read-out: residual kinase activity MELK
[5] = read-out: residual kinase activity PAK4
[6] = read-out: residual kinase activity p38g MAPK
[7] = read-out: residual kinase activity MNK1
[8] = read-out: residual kinase activity BRSK2
[9] = read-out: residual kinase activity PKA
[10] = MSK1, read-out: residual kinase activity
[11] = Src, read-out: residual kinase activity
[12] = MELK, read-out: residual kinase activity
[13] = PAK4, read-out: residual kinase activity
[14] = p38g MAPK, read-out: residual kinase activity
[15] = MNK1, read-out: residual kinase activity
[16] = BRSK2, read-out: residual kinase activity
[17] = PKA, read-out: residual kinase activity

T6 sequence (Q9BUB5 whole entry): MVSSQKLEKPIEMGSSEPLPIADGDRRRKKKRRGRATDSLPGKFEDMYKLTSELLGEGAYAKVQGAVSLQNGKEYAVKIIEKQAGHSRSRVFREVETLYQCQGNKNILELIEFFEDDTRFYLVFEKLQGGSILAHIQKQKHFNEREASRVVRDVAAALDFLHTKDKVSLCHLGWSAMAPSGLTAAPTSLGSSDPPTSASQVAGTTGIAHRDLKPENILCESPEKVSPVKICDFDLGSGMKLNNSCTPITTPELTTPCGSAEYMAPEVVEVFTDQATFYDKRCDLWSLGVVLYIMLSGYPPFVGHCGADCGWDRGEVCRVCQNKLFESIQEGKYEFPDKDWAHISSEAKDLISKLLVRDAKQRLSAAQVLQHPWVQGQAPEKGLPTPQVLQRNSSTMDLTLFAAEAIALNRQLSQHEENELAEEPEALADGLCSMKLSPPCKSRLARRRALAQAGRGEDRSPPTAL
T3 sequence (Q14680 whole entry): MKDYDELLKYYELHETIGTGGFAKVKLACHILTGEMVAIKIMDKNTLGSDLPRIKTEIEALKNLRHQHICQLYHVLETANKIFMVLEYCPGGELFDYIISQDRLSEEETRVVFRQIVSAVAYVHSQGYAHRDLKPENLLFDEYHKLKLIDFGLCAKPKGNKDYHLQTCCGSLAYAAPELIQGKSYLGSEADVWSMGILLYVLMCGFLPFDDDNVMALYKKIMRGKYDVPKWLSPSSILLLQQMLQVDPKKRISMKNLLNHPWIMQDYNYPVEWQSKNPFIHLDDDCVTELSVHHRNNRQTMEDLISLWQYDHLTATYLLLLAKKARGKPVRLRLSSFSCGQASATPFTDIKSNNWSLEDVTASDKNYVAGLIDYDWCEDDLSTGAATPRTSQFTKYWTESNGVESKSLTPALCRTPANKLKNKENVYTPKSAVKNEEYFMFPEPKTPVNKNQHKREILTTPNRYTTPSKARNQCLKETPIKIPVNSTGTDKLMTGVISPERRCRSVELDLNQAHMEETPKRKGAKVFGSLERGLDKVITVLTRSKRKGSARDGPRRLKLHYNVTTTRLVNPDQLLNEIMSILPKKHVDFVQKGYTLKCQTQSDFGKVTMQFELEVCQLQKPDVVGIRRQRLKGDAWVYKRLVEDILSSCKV
T1 sequence (O75582 whole entry): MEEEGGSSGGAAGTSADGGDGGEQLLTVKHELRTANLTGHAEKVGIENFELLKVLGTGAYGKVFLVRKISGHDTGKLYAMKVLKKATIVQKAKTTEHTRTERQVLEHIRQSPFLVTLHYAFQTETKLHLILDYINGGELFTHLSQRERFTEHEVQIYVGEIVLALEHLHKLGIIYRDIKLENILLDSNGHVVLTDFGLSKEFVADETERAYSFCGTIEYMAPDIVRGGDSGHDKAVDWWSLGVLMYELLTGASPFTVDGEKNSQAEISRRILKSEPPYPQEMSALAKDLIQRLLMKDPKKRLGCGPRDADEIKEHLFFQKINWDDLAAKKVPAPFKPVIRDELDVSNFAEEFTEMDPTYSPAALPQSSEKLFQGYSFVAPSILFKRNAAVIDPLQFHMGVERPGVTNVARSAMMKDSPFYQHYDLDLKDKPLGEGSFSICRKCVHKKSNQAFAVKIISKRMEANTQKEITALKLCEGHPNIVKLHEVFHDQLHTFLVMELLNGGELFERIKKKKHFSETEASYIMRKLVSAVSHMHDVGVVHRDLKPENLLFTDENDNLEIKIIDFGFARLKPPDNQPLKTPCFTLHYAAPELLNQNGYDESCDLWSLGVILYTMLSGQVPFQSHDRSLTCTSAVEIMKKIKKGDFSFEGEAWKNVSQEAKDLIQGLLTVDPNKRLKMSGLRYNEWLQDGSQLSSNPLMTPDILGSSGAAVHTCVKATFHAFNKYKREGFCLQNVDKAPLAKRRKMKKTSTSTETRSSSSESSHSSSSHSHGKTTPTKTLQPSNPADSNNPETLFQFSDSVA
T2 sequence (P12931 whole entry): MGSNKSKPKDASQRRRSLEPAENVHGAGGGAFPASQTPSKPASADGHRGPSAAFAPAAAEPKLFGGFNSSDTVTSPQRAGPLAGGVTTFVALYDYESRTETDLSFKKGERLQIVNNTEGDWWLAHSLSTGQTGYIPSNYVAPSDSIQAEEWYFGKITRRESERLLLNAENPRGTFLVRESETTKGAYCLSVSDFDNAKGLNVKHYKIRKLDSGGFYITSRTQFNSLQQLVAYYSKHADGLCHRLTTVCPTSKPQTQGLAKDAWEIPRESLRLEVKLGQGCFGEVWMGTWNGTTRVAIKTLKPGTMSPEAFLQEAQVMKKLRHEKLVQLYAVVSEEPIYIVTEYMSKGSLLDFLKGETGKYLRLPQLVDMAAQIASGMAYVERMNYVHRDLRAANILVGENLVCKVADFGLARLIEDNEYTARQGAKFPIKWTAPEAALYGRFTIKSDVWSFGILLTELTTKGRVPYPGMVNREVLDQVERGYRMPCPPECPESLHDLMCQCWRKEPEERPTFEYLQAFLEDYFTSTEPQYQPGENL
T4 sequence (O96013 whole entry): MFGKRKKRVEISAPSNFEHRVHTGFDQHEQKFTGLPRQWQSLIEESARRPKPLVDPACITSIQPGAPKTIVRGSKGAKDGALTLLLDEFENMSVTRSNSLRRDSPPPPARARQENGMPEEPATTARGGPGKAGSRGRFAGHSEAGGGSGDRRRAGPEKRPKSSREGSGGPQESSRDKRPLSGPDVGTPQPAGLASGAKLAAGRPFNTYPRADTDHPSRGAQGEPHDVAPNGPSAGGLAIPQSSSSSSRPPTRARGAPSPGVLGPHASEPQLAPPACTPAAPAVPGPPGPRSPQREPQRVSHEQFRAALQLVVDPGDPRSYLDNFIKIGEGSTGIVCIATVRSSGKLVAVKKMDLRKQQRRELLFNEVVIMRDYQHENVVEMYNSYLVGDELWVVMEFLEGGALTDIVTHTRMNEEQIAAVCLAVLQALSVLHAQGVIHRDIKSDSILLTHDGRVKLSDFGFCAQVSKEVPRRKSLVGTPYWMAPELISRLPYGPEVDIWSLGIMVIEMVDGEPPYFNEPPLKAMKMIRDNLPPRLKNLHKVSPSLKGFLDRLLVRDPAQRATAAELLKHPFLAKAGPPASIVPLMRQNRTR

Row | Structure (SMILES) | remaining activity at 10 µM (MSK1; [2]) | residual kinase activity MSK1 (MSK1) | remaining activity at 10 µM (Src; [3]) | residual kinase activity Src (Src) | remaining activity at 1 µM (MSK1; [10]) | remaining activity at 10 µM (MSK1; [10]) | remaining activity at 1 µM (Src; [11]) | remaining activity at 10 µM (Src; [11]) | remaining activity at 1 µM (MELK; [12]) | remaining activity at 10 µM (MELK; [12]) | remaining activity at 1 µM (PAK4; [13]) | remaining activity at 10 µM (PAK4; [13]) | remaining activity at 1 µM (p38g MAPK; [14]) | remaining activity at 10 µM (p38g MAPK; [14]) | remaining activity at 1 µM (MNK1; [15]) | remaining activity at 10 µM (MNK1; [15]) | remaining activity at 1 µM (BRSK2; [16]) | remaining activity at 10 µM (BRSK2; [16]) | remaining activity at 1 µM (PKA; [17]) | remaining activity at 10 µM (PKA; [17]) | further results
1 | O=C(NCCCNc1nc(Nc2cccc(F)c2)ncc1Br)C1CCC1 [Compound A, cyclobutanecarboxylic acid {3-[5-bromo-2-(3-fluoro-phenylamino)-pyrimidin-4-ylamino]-propyl}-amide, reference compound] | 24% | 62% | 12% | 53% | – | – | – | – | – | – | – | – | – | – | – | – | – | – | – | – | remaining activity at 10 µM (MELK; [4]): 14%; residual kinase activity MELK (MELK): 15%; remaining activity at 10 µM (PAK4; [5]): 6%; residual kinase activity PAK4 (PAK4): 32%; remaining activity at 10 µM (p38g MAPK; [6]): 17%; residual kinase activity p38g MAPK (p38g MAPK): 65%; remaining activity at 10 µM (MNK1; [7]): 15%; residual kinase activity MNK1 (MNK1): 49%; GINI Coefficient ([1]; @ 10 μM): 0.19; GINI Coefficient ([1]; in words): significantly lower value than Example 23; remaining activity at 10 µM (BRSK2; [8]): 6%; residual kinase activity BRSK2 (BRSK2): 23%; remaining activity at 10 µM (PKA; [9]): 22%; residual kinase activity PKA (PKA): 75%
2 | O=C(NCCCNc1nc(Nc2cccc(F)c2)ncc1C1CC1)C1CCC1 [Example 23, Cyclobutanecarboxylic acid {3-[5-cyclopropyl-2-(3-fluoro-phenylamino)-pyrimidin-4-ylamino]-propyl}-amide] | 34% | 74% | 50% | 77% | 74% | 34% | 77% | 50% | 23% | 3% | 72% | 31% | 81% | 91% | 85% | 62% | 64% | 26% | 80% | 73% | remaining activity at 10 µM (MELK; [4]): 3%; residual kinase activity MELK (MELK): 23%; remaining activity at 10 µM (PAK4; [5]): 31%; residual kinase activity PAK4 (PAK4): 72%; remaining activity at 10 µM (p38g MAPK; [6]): 91%; residual kinase activity p38g MAPK (p38g MAPK): 81%; remaining activity at 10 µM (MNK1; [7]): 62%; residual kinase activity MNK1 (MNK1): 85%; GINI Coefficient ([1]; @ 10 μM): 0.35; selectivity across kinase panel ([1]; in words): significant improvement of selectivity across this kinase panel; remaining activity at 10 µM (BRSK2; [8]): 26%; residual kinase activity BRSK2 (BRSK2): 64%; remaining activity at 10 µM (PKA; [9]): 73%; residual kinase activity PKA (PKA): 80%
3 | O=C(NCCCNc1nc(Nc2cccc(N3CCCC3=O)c2)ncc1C1CC1)c1cccs1 [Example 47, Thiophene-2-carboxylic acid (3-{5-cyclopropyl-2-[3-(2-oxo-pyrrolidin-1-yl)-phenylamino]-pyrimidin-4-ylamino}-propyl)-amide. Hydrochloride salt] | – | – | – | – | 61% | 54% | 80% | 67% | 14% | 27% | 80% | 57% | 97% | 77% | 93% | 73% | 91% | 36% | 96% | 80% | –
4 | O=C(NCCCNc1nc(Nc2cccnc2)ncc1C1CC1)c1cccs1 [Example 50, Thiophene-2-carboxylic acid {3-[5-cyclopropyl-2-(pyridin-3-ylamino)-pyrimidin-4-ylamino]-propyl}-amide] | – | – | – | – | 77% | 70% | 84% | 50% | 29% | 17% | 75% | 35% | 93% | 80% | 94% | 81% | 87% | 42% | 91% | 80% | –
